# Experimental data: ChEMBL document CHEMBL1138817, “Synthesis and cytotoxic activity of 3-O-acyl/3-hydrazine /2-bromo/20,29-dibromo betulinic acid derivatives” (2004)
# Key:
# Assay type in all cases: functional
# CCRF-CEM = experiment: Cytotoxic activity against human CEM.CM3 cell line was measured after 72 hr using MTT assay; settings: for EC50: Homo sapiens, CCRF-CEM, 72 h, read-out: ED50 (the source's name)
# BRISTOL8 = experiment: Cytotoxic activity against human BRISTOL8 cell line was measured after 72 hr using MTT assay; settings: for EC50: Homo sapiens, BRISTOL8, 72 h, read-out: ED50 (the source's name)
# U-937 = experiment: Cytotoxic activity against human U937 cell line was measured after 72 hr using MTT assay; settings: for EC50: Homo sapiens, U-937, 72 h, read-out: ED50 (the source's name)
# Jurkat = experiment: Cytotoxic activity against human JurkatE6.1 cell line was measured after 72 h using MTT assay; settings: for EC50: Homo sapiens, Jurkat, 72 h, read-out: ED50 (the source's name)
# PA-1 = experiment: Cytotoxic activity against human PA-1 cell line was measured after 72 hr using MTT assay; settings: for EC50: Homo sapiens, PA-1, 72 h, read-out: ED50 (the source's name)
# DU-145 = experiment: Cytotoxic activity against human DU145 cell line was measured after 72 hr using MTT assay; settings: for EC50: Homo sapiens, DU-145, 72 h, read-out: ED50 (the source's name)
# MOLT-4 = experiment: Cytotoxic activity against human MOLT-4 cell line was measured after 72 hr using MTT assay; settings: for EC50: Homo sapiens, MOLT-4, 72 h, read-out: ED50 (the source's name)
# A549 = experiment: Cytotoxic activity against human A549 cell line was measured after 72 hr using MTT assay; settings: A549, 72 h, read-out: ED50 (the source's name)
# L132 = experiment: Cytotoxic activity against human L132 cell line was measured after 72 hr using MTT assay; settings: L132, 72 h, read-out: ED50 (the source's name)
Compound,ED50 (CCRF-CEM) [µg/mL],ED50 (BRISTOL8) [µg/mL],ED50 (U-937) [µg/mL],ED50 (Jurkat) [µg/mL],ED50 (PA-1) [µg/mL],ED50 (DU-145) [µg/mL],ED50 (MOLT-4) [µg/mL],EC50 (A549) [µg/mL],EC50 (L132) [µg/mL],EC50 (CCRF-CEM) [µg/mL],EC50 (BRISTOL8) [µg/mL],EC50 (U-937) [µg/mL],EC50 (Jurkat) [µg/mL],EC50 (PA-1) [µg/mL],EC50 (DU-145) [µg/mL],EC50 (MOLT-4) [µg/mL]
C=C(C)[C@@H]1CC[C@]2(C(=O)OCC(=O)OC)CC[C@]3(C)C(CCC4[C@@]5(C)CC[C@H](O)C(C)(C)C5CC[C@]43C)C12 (stereo in doubt; 4),5.9,7.4,5.4,3.1,3.1,1.9,2.9,,,,,,,,,
CC(C)[C@@H]1CC[C@]2(C(=O)O)CC[C@]3(C)C(CCC4[C@@]5(C)CC/C(=N\O)C(C)(C)C5CC[C@]43C)C12 (stereo partly drawn),,,,,,,,> 1.8,1.5,2.6,1.6,2.4,1.8,0.7,1.1,2.1
CC(Br)(CBr)[C@@H]1CC[C@]2(C(=O)O)CC[C@]3(C)C(CCC4[C@@]5(C)CC(Br)[C@H](O)C(C)(C)C5CC[C@]43C)C12 (stereo partly drawn),,,,,,,,> 10,> 10,6.8,7,> 10,> 10,6,> 10,3.6
C=C(C)[C@@H]1CC[C@]2(C(=O)CC(=O)OC)CC[C@]3(C)C(CCC4[C@@]5(C)CC[C@H](O)C(C)(C)C5CC[C@]43C)C12 (stereo partly drawn),,,,,,,,> 10,> 10,6.4,4.5,> 10,7.4,7.1,2.9,3.9
COC(=O)CCOC(=O)[C@]12CC[C@@H](C(C)C)C1C1CCC3[C@@]4(C)CC(Br)C(=O)C(C)(C)C4CC[C@@]3(C)[C@]1(C)CC2 (stereo partly drawn),,,,,,,,> 10,> 10,1.9,2.3,1.2,1.9,4.8,6.6,1.2
COC(=O)C(C)C(=O)O[C@H]1CC[C@@]2(C)C(CC[C@]3(C)C2CCC2C4[C@H](C(C)C)CC[C@]4(C(=O)O)CC[C@]23C)C1(C)C (stereo partly drawn),,,,,,,,2.1,7.7,3.1,2.1,4,3.8,1.3,1,2.8
C=C(C)[C@@H]1CC[C@]2(C(=O)O)CC[C@]3(C)C(CCC4[C@@]5(C)CC/C(=N\OS(=O)(=O)c6ccc(C)cc6)C(C)(C)C5CC[C@]43C)C12 (stereo partly drawn),,,,,,,,> 10,> 10,1.5,3.3,4.8,4.9,1.8,2.8,2.7
CC(=O)O[C@H]1C(Br)C[C@@]2(C)C(CC[C@]3(C)C2CCC2C4[C@H](C(C)(Br)CBr)CC[C@]4(C(=O)O)CC[C@]23C)C1(C)C (stereo partly drawn),,,,,,,,> 10,> 10,2.7,1.4,0.3,6.9,2.4,2.5,2.8
CC(C)[C@@H]1CC[C@]2(C(=O)O)CC[C@]3(C)C(CCC4[C@@]5(C)CC(Br)C(=O)C(C)(C)C5CC[C@]43C)C12 (stereo partly drawn),,,,,,,,> 10,> 10,0.3,2.9,1.3,0.7,0.5,3,0.4
C=C(C)[C@@H]1CC[C@]2(C(=O)OCC(=O)O)CC[C@]3(C)C(CCC4[C@@]5(C)CC[C@H](O)C(C)(C)C5CC[C@]43C)C12 (stereo partly drawn),,,,,,,,> 10,> 10,> 10,,> 10,> 10,1.3,> 10,3.1
COC(=O)COC(=O)[C@]12CC[C@@H](C(C)C)C1C1CCC3[C@@]4(C)CC(Br)C(=O)C(C)(C)C4CC[C@@]3(C)[C@]1(C)CC2 (stereo partly drawn),,,,,,,,> 10,> 10,2.1,3.4,1.1,2.8,3.2,6.8,1.7
C=C(C)[C@@H]1CC[C@]2(C(=O)O)CC[C@]3(C)C(CCC4[C@@]5(C)CC[C@H](OC(=O)C(C)C(=O)OC)C(C)(C)C5CC[C@]43C)C12 (stereo partly drawn),,,,,,,,> 10,> 10,1.6,1.7,1.1,0.9,3.6,1.6,1.2
C=C(C)[C@@H]1CC[C@]2(C(=O)O)CC[C@]3(C)C(CCC4[C@@]5(C)CC[C@H](OC(C)=O)C(C)(C)C5CC[C@]43C)C12 (stereo partly drawn),,,,,,,,> 10,> 10,,4.8,1.6,1.8,4.1,2.6,3.1
